Source: US11173154B2 (priority 2015, dated 2021)
Like-named read-outs stand apart in the source and are kept apart here.

Key:
[1] = test system: Legionella pneumophila serogroup 1; conditions: guinea pig, in vivo
[2] = test system: C57BL/6J mice; experiment: LPS-induced septic shock model; assay type: in vivo, mouse; conditions: LPS 10 mg/kg i.p., CPT 30 mg/kg 30 minutes before and one hour after LPS
[3] = test system: RNAPII and Top1 at transcriptional start sites; assay type: cell-based; conditions: A549, PR8ΔNS1
[4] = test system: A549 cells
[5] = test system: C57BL/6J mice; experiment: Cecal ligation puncture (CLP) model; conditions: CPT 30 mg/kg i.v. 6 hours and twice at day 2, 60 mg/kg i.p. day 3 post-surgery
[6] = test system: GM-CSF, IL-1β, IL-6 and TNFα in mouse serum; experiment: Serum cytokines 4 hours after LPS injection; assay type: in vivo; conditions: mice
[7] = test system: spleen of C57BL/6J mice; conditions: LPS+CPT, 90 minutes after LPS

CC[C@@]1(O)C(=O)OCc2c1cc1n(c2=O)Cc2cc3ccccc3nc2-1 [CPT, Camptothecin]
survival rates [1]: improved survival rates
time to death relative to the control group [1]: delay of death
survival in lethal endotoxic (septic) shock [2]: rescued animals from lethal endotoxic shock
RNAPII at PAMP-induced genes [3]: suppress
DNA damage (H2AX staining) at the concentration used ([4]; A549, 0.5 μM CPT, 100 nM TPT, 6 hours p.i.): neither TPT- nor CPT-treated cells displayed DNA damage
concentration at which DNA damage was detectable, relative to the concentration selected ([4]; A549, selected 0.5 μM CPT, 100 nM TPT): 20 times higher
survival following CLP [5]: improved survival
pro-inflammatory genes and cytokine expression (serum titers) [6]: suppression
cell death in vivo (Live/Dead dye, spleen) [7]: without inducing cell death
inflammatory gene transcription in vivo (spleen) [7]: inhibits

CC[C@@]1(O)C(=O)OCc2c1cc1n(c2=O)Cc2cc3c(CN(C)C)c(O)ccc3nc2-1 [TPT, Topotecan]
RNAPII at PAMP-induced genes [3]: suppress
concentration at which DNA damage was detectable, relative to the concentration selected ([4]; human): 100 times higher
